Reference: ChEMBL document CHEMBL4177637, “Proapoptotic modification of substituted isoindolinones as MDM2-p53 inhibitors” (2017)
Calls of active or inactive are those of the source. The rule behind the calls is not given here.

How the values were obtained:
[1] = tested on: HCT-116; experiment: Growth inhibition of human p53 knockdown HCT116 cells after 48 hrs by Hoechst 33258 staining based fluorescence assay; format: functional; details: HCT-116, 48 h
[2] = tested on: HCT-116; experiment: Growth inhibition of human HCT116 cells harboring p53+/+ after 48 hrs by Hoechst 33258 staining based fluorescence assay; format: functional; details: HCT-116, 48 h
[3] = tested on: U2OS; experiment: Induction of apoptosis in human U2OS cells at 10 uM after 24 hrs by Annexin V-FITC/propidium iodide based FACS analysis (Rvb= 0.1%); format: functional
[4] = target: Tumour suppressor p53/oncoprotein Mdm2 (Homo sapiens) (UniProt P04637+Q00987); experiment: Inhibition of MDM2/p53 in human HCT116 cells at 10 uM after 24 hrs by Western blot method; format: cell-based
Sequence of Tumour suppressor p53/oncoprotein Mdm2 (Homo sapiens) (P04637 whole entry, looked up): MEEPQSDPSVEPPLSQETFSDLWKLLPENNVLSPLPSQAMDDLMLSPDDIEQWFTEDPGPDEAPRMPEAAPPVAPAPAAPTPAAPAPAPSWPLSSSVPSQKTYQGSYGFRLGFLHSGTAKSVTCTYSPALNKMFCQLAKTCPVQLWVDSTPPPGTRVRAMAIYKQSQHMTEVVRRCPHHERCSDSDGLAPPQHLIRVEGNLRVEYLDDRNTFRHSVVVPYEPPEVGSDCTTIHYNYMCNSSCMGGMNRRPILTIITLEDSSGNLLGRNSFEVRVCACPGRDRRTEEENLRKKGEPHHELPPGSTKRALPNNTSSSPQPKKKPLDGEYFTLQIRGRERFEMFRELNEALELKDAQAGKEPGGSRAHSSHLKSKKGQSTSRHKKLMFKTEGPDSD
Sequence of Tumour suppressor p53/oncoprotein Mdm2 (Homo sapiens) (Q00987 whole entry, looked up): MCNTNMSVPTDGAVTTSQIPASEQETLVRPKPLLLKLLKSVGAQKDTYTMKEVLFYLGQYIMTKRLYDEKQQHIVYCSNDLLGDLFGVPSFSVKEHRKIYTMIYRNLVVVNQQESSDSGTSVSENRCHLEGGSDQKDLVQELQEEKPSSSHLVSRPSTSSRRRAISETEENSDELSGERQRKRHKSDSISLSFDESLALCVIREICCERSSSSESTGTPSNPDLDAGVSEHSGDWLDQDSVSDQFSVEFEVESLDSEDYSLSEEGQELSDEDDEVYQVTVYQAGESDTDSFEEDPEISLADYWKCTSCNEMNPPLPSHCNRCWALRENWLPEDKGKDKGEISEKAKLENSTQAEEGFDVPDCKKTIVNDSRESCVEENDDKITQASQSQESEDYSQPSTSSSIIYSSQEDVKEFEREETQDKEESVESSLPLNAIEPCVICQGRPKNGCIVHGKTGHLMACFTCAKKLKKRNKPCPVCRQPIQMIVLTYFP

[5] = tested on: HCT-116; experiment: Selectivity ratio of GI50 for human p53 knockdown HCT116 cells to GI50 for human HCT116 cells harboring p53+/+; format: functional

GI50 [1] [µM]	GI50 [2] [µM]	inhibition [4]	Structure (SMILES)	Activity [3] [%]	RatioGI50 [5]
43	14		N[C@H](C(=O)OCCCOC1(c2ccc(Cl)cc2)c2ccccc2C(=O)N1Cc1ccccc1)c1ccccc1 (stereo not given in full)		
82	71		CC(C)(CO)COC1(c2ccc(Cl)cc2)c2ccccc2C(=O)N1Cc1ccccc1 (stereo not given)		
45	12		N[C@H](C(=O)OCCCOC1(c2ccc(Cl)cc2)c2ccccc2C(=O)N1Cc1ccc(Cl)cc1)c1ccccc1 (stereo not given in full)		
44	15		CC(C)(COC(=O)[C@@H](N)c1ccccc1)COC1(c2ccc(Cl)cc2)c2ccccc2C(=O)N1Cc1ccccc1 (stereo not given in full)		
65	20		CC(C)[C@H](N)C(=O)OCCCOC1(c2ccc(Cl)cc2)c2ccccc2C(=O)N1Cc1ccccc1 (stereo not given in full)		
65	50	Active	CC(C)(CO)COC1(c2ccc(Cl)cc2)c2ccccc2C(=O)N1Cc1ccc(Cl)cc1 (stereo not given)	2	

Continued, compound first:

Structure (SMILES)	GI50 [1] [µM]	GI50 [2] [µM]	inhibition [4]	Activity [3] [%]	RatioGI50 [5]
CC(C)[C@H](N)C(=O)OCCCOC1(c2ccc(Cl)cc2)c2ccccc2C(=O)N1Cc1ccc(Cl)cc1 (stereo not given in full)	60	16			
O=C1c2ccccc2C(OCCCO)(c2ccc(Cl)cc2)N1Cc1ccc(Cl)cc1 (stereo not given)	68	60			
CC(C)(COC(=O)[C@@H](N)c1ccccc1)COC1(c2ccc(Cl)cc2)c2ccccc2C(=O)N1Cc1ccc(Cl)cc1 (stereo not given in full)	38	8	Active	33.1	<=4.75
CC(=O)OCCCOC1(c2ccc(Cl)cc2)c2ccccc2C(=O)N1Cc1ccccc1 (stereo not given)	80	50			
CC(=O)OCCCOC1(c2ccc(Cl)cc2)c2ccccc2C(=O)N1Cc1ccc(Cl)cc1 (stereo not given)	68	46			
O=C1c2ccccc2C(OCCCO)(c2ccc(Cl)cc2)N1Cc1ccccc1 (stereo not given)	90	79			
COc1ccc(C2=N[C@@H](c3ccc(Cl)cc3)[C@@H](c3ccc(Cl)cc3)N2C(=O)N2CCNC(=O)C2)c(OC(C)C)c1 [NUTLIN-3]	27	8		31	
CC(C)[C@H](N)C(=O)OCC(C)(C)COC1(c2ccc(Cl)cc2)c2ccccc2C(=O)N1Cc1ccc(Cl)cc1 (stereo not given in full)	40	11			
CC(C)[C@H](N)C(=O)OCC(C)(C)COC1(c2ccc(Cl)cc2)c2ccccc2C(=O)N1Cc1ccccc1 (stereo not given in full)	65	20			
CC(=O)OCC(C)(C)COC1(c2ccc(Cl)cc2)c2ccccc2C(=O)N1Cc1ccc(Cl)cc1 (stereo not given)	70	35			
CC(=O)OCC(C)(C)COC1(c2ccc(Cl)cc2)c2ccccc2C(=O)N1Cc1ccccc1 (stereo not given)	70	38			
